In ChEMBL document CHEMBL5126661, “Experimental and Computational Studies on the Biotransformation of Pseudopyronines with Human Cytochrome P450 CYP4F2” (2022):

Experiments:
Assay type in all cases: functional
Staphylococcus aureus = test: Antibacterial activity against Staphylococcus aureus ATCC12600 assessed as inhibition of bacterial growth by broth microdilution method
[1] = tested on: Staphylococcus epidermidis; test: Antibacterial activity against Staphylococcus epidermidis ATCC14990 assessed as inhibition of bacterial growth by broth microdilution method
Streptococcus mutans = test: Antibacterial activity against Streptococcus mutans ATCC25175 assessed as inhibition of bacterial growth by broth microdilution method
Moraxella catarrhalis = test: Antibacterial activity against Moraxella catarrhalis ATCC25238 assessed as inhibition of bacterial growth by broth microdilution method

Measured: MIC

CCCCCCCc1cc(O)c(CCCCCC)c(=O)o1 [PSEUDOPYRONINES B]
2.1 µg/mL: Staphylococcus aureus | [1] | Streptococcus mutans | Moraxella catarrhalis
